This is an account of results in patent US20130059879A1, “Small Molecule Inhibitors of PFKFB3 and Glycolytic Flux and Their Methods of Use as Anti-Cancer Therapeutics” (UNIVERSITY OF LOUISVILLE RESEARCH FOUNDATION, INC., priority 2010, published 2013).

For one series, the system named is Hep G2. The series can be described thus: Cell proliferation, MTT assay, 72 hours. The conditions noted are these: Homo sapiens, HepG2. The series is classed as cell-based. How it is done:
(§1) The ability of the compounds described herein to kill or inhibit the proliferation of cancer cells was measured using either the MTT assay, or the Alamar Blue assay, or the Cell Titer Glow® assay using 48 or 72 hours exposure. […] The procedures are briefly described below. Cells of the desired tumor cell line were plated at 2×10^5 cells/ml in 96 well plates. Twice the indicated concentrations of the compounds of the invention were added to cells the following day in an equal volume of media. 72 hours later, cells were lysed and subjected to ATP determination using the CellTiter Glo-Luminescent Cell Viability Assay kit (Promega, Madison, Wis.). Experiments were done in triplicate. When using the MTT assay or the Alamar blue assay, the experimental conditions are essentially similar; at the end of the incubation period, 20 microliters of the MTT solution is added per well and the samples are incubated for an additional four hours, rinsed, and the absorbance at 570 nm measured. […] Table 2 lists the IC50 values for the compounds of the invention in several cell lines including Jurkat, Calu-6, NCI-H82, U937, HCT-116, and MDA-MB-231 cancer cell lines.

The next series has as its system HT-29. The experiment in a line: Cell proliferation, MTT assay, 72 hours. The series is classed as cell-based. To be noted: Homo sapiens, HT-29, MTT assay. On the procedure:
as §1

The subject of another series is Jurkat. The series can be described thus: Cell proliferation, MTT assay, 72 hours. It counts as cell-based. The conditions noted are these: Homo sapiens. On the procedure: as §1
In general terms: Tetrazolium assays rely on reduction of a dye to a coloured formazan, in cell work by metabolically active cells.

For another series, the system named is Calu-6. The experiment in a line: Cell proliferation, MTT assay, 72 hours. To be noted: Homo sapiens, Calu-6, MTT assay. It counts as cell-based. On the procedure:
as §1

In a further series the test system is HCT-116. The experiment in a line: Cell proliferation, MTT assay, 72 hours. The series is classed as cell-based. To be noted: Homo sapiens, HCT-116, MTT assay. On the procedure:
as §1

The test system of another series is K562. The experiment in a line: Cell proliferation, MTT assay, 72 hours. It counts as cell-based. To be noted: Homo sapiens. On the procedure:
as §1

The next series deals with NCI-H82. The experiment in a line: Cell proliferation, MTT assay, 72 hours. The conditions noted are these: Homo sapiens. It counts as cell-based. How it is done:
as §1

For a further series, the system named is DU145. The experiment in a line: Cell proliferation, MTT assay, 72 hours. The series is classed as cell-based. To be noted: Homo sapiens, DU-145. On the procedure:
as §1

In a further series the test system is Hela. The series can be described thus: Cell proliferation, MTT assay, 72 hours. It counts as cell-based. The conditions noted are these: Homo sapiens. On the procedure:
as §1

The subject of the next series is MDA-MB-231. The experiment in a line: Cell proliferation, MTT assay, 72 hours. The series is classed as cell-based. The conditions noted are these: Homo sapiens, MDA-MB-231, MTT assay. On the procedure:
as §1

Another series relates to H209. The experiment in a line: Cell proliferation, MTT assay, 72 hours. It counts as cell-based. To be noted: Homo sapiens, NCI-H209. How it is done: as §1
Another series concerns U937. The series can be described thus: Cell proliferation, MTT assay, 72 hours. It counts as cell-based. The conditions noted are these: Homo sapiens, U-937. On the procedure: as §1
The test system of the next series is PC3. The experiment in a line: Cell proliferation, MTT assay, 72 hours. It counts as cell-based. The conditions noted are these: Homo sapiens, PC-3. How it is done:
as §1

A short description of the next series: Pharmacokinetics in rats. The series is classed as in vivo. The conditions noted are these: male Sprague Dawley rats. How it is done:
(§2) The pharmacokinetic parameters for several compounds were determined in mice following IV (intravenous), IP (intraperitoneal), or PO (per os) administration, as well as in rats and dogs. A typical study design includes six Balbc male mice 7 to 8 weeks old. For instance, a dose of 10 mg/kg was administered IV using a 5% DMS0/90% Captisol (20% in water) solution or other pharmaceutically acceptable parenteral and oral formulations. Blood samples were collected at different intervals. Plasma samples were extracted and analyzed using an LC-MS/MS method. Similar protocols were used for the rats (Sprague Dawley rats) or dogs (beagles) PK studies; in the case of dogs PK studies, the number of animals per group was three.
(§3) PFK-065 was dosed at 10 mg/kg in male Balbc mice; PFK-095 was dosed at 10 mg/kg in male Sprague Dawley rats; and PFK-112 dosed at 6 mg/kg in male beagle dogs.

Another series in a line: Pharmacokinetics in dogs. The series is classed as in vivo. To be noted: male beagle dogs. On the procedure:
as §2, §3

The next series concerns A549. The experiment in a line: Cell proliferation, MTT assay, 48 hours. The series is classed as cell-based. The conditions noted are these: Homo sapiens. How it is done:
as §1

The test system of the next series is H22. The experiment in a line: Cell proliferation, MTT assay, 48 hours. The conditions noted are these: Mus musculus. It counts as cell-based. On the procedure: as §1
For a further series, the system named is LnCap. The experiment in a line: Cell proliferation, MTT assay, 48 hours. The series is classed as cell-based. To be noted: Homo sapiens. On the procedure:
as §1

Another series relates to SK-BR-3. The series can be described thus: Cell proliferation, MTT assay, 48 hours. The series is classed as cell-based. To be noted: Homo sapiens, SK-BR-3, MTT assay. How it is done:
as §1

Another series has as its system MiaPaca. The series can be described thus: Cell proliferation, MTT assay, 48 hours. The series is classed as cell-based. To be noted: Homo sapiens, MIA PaCa-2. How it is done:
as §1

Another series deals with BT474. The experiment in a line: Cell proliferation, MTT assay, 48 hours. It counts as cell-based. To be noted: Homo sapiens, BT-474. On the procedure:
as §1

In the next series the test system is U87MG. The series can be described thus: Cell proliferation, MTT assay, 48 hours. It counts as cell-based. The conditions noted are these: Homo sapiens, U-87 MG. How it is done:
as §1

The next series relates to SK-N-SH. The experiment in a line: Cell proliferation, MTT assay, 48 hours. To be noted: Homo sapiens. It counts as cell-based. How it is done:
as §1

Another series relates to BX-PC-3. The experiment in a line: Cell proliferation, MTT assay, 48 hours. To be noted: Homo sapiens, BXPC-3, BX-PC-3, MTT assay. It counts as cell-based. How it is done:
as §1

The test system of another series is CT26. The experiment in a line: Cell proliferation, MTT assay, 48 hours. The conditions noted are these: Mus musculus. The series is classed as cell-based. How it is done: as §1
Series [1] can be described thus: Cell permeability in MDR1-MDCK monolayers. It counts as in vitro ADME. The conditions noted are these: dog, MDR1-MDCK cells, pH 7.4. An excerpt:
The determination of the permeability in Caco2 or MDR1-MDCK cells is widely used when screening compounds to assess cell permeability, intestinal drug transport and predict absorption rates and to ascertain if a compound might be a Pgp substrate and have cross the blood brain barrier. […] Comparison of the apical to basal (A-B) and basal to apical (B-A) values show if a compound is actively effluxed out the cells and if it is a Pgp substrate. […] Briefly, cell permeability and transport mechanisms in Caco-2 and MDR1-MDCK monolayers experiments were performed in triplicate in the apical-to-basolateral and basolateral-to-apical direction using Transwell wells containing either Caco-2 or MDR1-MDCK monolayers. A modified Hanks buffer pH 7.4 was used in both reservoir and receiver wells with the addition of 1% BSA in the receiver side. Confluent monolayers were used and their integrity was verified using reference compounds (Atenolol as a low permeability reference compound and Propanolol as a high permeability reference compound). A sample in the basolateral and apical sides was taken after 2 hours and the concentration measured by LC/MS-MS.

For orientation: IC50 means the point on the concentration scale where inhibition reaches its midpoint. A low value points to greater potency. A word on the Cmax: it is the maximum level reached in the sampled fluid or tissue. As usually defined, the Vd is a proportionality between amount in the body and measured concentration, not a real space. A low value points to confinement near the circulation. The AUC(0-inf) is total exposure, with the tail of the curve extrapolated. A lower AUC(0-inf) goes with low exposure. For the compound `O=C(c1ccncc1)c1cc2c(ccc3ccccc32)[nH]1` [ACT-PFK-095, (3H-Benzo[e]indol-2-yl)-pyridin-4-yl-methanone], the IC50 in the series on Hep G2 is 5.5 µM; in the series with HT-29, 450 nM; in the series on Jurkat, 4.65 µM; in the series on Calu-6, 140 nM; with HCT-116 it was 510 nM; in the series with K562, 210 nM. Also, the IC50 with NCI-H82 was determined as 180 nM; in the series with DU145 it was 940 nM; in the series on Hela, 9.1 µM; in the series on MDA-MB-231, 24.9 µM; with H209 it was 190 nM; with U937, 50 nM. The compound further yielded an IC50 in the series on PC3 of 950 nM. The compound further registered a Cmax in the series “Pharmacokinetics in rats” (IV 10 mg/kg) of 16932 ng/mL. In the series “Pharmacokinetics in rats” (IV 10 mg/kg), the T1/2b is listed as 5.5 h. The Vd in the series “Pharmacokinetics in rats” (IV 10 mg/kg) was 2.5 L/kg. In “Pharmacokinetics in rats” (oral bioavailability, PO 10 mg/kg), the “% F (from PO group)” value came out at 38%. The compound further came in with an AUC(0-inf) in “Pharmacokinetics in rats” (rat, plasma, IV 10 mg/kg) of 1290 ng·h/mL.
Usually Papp A→B stands for how fast a substance crosses the layer from the apical side. A lower Papp A→B goes with poor permeation. Usually Papp B→A stands for the apparent permeability from the basolateral to the apical side of a cell layer. The compound `Nc1ccc(C(=O)c2cc3c(ccc4ccccc43)[nH]2)cc1` [ACT-PFK-112, (4-Amino-phenyl)-(3H-benzo[e]indol-2-yl)-methanone] showed a T1/2b in “Pharmacokinetics in dogs” (IV 6 mg/kg) of 5.8 h. The same compound registered an AUC(0-inf) in the series “Pharmacokinetics in dogs” (dog, plasma, IV 6 mg/kg) of 5070 ng·h/mL. Further, in the series “Pharmacokinetics in dogs” (dog, plasma, IV 6 mg/kg), the concentration peaked (Cmax) at 5060 ng/mL. Moreover, in the series “Pharmacokinetics in dogs” (dog, plasma, IV 6 mg/kg), the Vd came out at 1.8 L/kg. Also, the “% F (from PO group)” value in the series “Pharmacokinetics in dogs” (oral bioavailability, PO 24 mg/kg vs IV 6 mg/kg) is recorded as 95%. In addition, the IC50 with A549 came to 822 nM; in the series on H22 it was 513 nM; in the series with LnCap it was 1030 nM; in the series on SK-BR-3, 1110 nM; in the series with MiaPaca, 154 nM; with BT474 it was 1370 nM. Further, the half-inhibitory concentration (IC50) in the series with U87MG was determined as 3.79 µM; in the series on SK-N-SH, 305 nM; in the series on BX-PC-3, 135 nM; in the series with CT26, 1950 nM. The Papp A→B at 2 h in [1] (apical to basal) came out at 7.8 ×10⁻⁶ cm/s. In series [1] (basal to apical), this compound registered a Papp B→A at 2 h of 17.3 ×10⁻⁶ cm/s.
